Each structure is given as a SMILES string.

The nature of series [1]: Solubility in 96° ethanol at 25° C. It is filed as physicochemical. The text has this: The compound of formula (II) also has the advantage of having a good solubility in the usual dye carriers.
Series [2] can be described thus: Dye fastness on hair, fastness to washing/shampooing. The arrangement: species or system human. Particulars: compared to nitro benzene dyes.
The subject of series [3] is Salmonella strains. The series can be described thus: Ames test (mutagenicity). The series is classed as biochemical.

Take `Nc1ccc(N=Nc2ccc(N(CCO)CCO)cc2)cc1` [(I)]: the solubility in series [1] was determined as 1.3%. In series [2], the stability to washing result is on record as “improved stability to washing”. The “mutagenicity (Ames test)” value in series [3] (five strains of the Salmonella type, in the presence of a S-9 Mix microsomal activator) is “mutagenic to five strains of the Salmonella type”.
In the case of `Cc1cc(N(CCO)CCO)ccc1N=Nc1ccc(N)cc1` [(II)], the solubility in series [1] is on record as 5.3%. Further, the non-mutagenicity result in series [3] (strains and activation not stated for this compound) is “non-mutagenicity has been demonstrated”.

The record behind these values is patent publication US4886517A, “Dyeing composition for human hair containing an azo dye” (L'Oreal, priority 1985, dated 1989).
